Reference: paper PMC7179907, “Novel AXL-specific inhibitor ameliorates kidney dysfunction through the inhibition of epithelial-to-mesenchymal transition of renal tubular cells” (PLoS ONE, 2020)

Assays:
AXL = target: T1, AXL (Homo sapiens, UniProt P30530); assay: Protein kinase assay, AXL; format: biochemical; details: recombinant AXL, 1.5 hours treatment, n = 2; read-out: IC50 against AXL kinase activity
T1 construct: purchased Carna Biosciences (Kobe, Japan)
T1 sequence (P30530 26-894): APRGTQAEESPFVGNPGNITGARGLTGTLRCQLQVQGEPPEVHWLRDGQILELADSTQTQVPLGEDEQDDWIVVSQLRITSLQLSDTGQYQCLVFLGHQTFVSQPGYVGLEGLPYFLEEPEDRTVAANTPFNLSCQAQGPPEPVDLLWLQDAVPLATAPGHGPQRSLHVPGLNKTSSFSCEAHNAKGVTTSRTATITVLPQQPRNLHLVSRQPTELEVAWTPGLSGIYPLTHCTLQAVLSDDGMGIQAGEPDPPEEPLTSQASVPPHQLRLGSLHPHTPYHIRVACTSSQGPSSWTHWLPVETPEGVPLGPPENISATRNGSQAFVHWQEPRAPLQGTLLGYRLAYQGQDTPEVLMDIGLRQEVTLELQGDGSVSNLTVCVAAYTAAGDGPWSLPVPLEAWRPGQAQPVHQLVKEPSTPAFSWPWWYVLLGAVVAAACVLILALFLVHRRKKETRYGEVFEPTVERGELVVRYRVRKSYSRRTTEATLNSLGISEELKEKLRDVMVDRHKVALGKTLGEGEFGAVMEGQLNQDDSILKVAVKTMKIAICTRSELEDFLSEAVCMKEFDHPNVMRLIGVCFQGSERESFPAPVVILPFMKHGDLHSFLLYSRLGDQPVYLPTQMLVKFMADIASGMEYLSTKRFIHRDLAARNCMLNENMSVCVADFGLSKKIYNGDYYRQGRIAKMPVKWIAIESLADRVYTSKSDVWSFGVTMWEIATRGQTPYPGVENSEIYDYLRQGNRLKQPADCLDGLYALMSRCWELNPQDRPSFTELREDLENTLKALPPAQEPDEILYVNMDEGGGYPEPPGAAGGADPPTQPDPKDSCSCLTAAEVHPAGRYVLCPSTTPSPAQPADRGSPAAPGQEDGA
Description: (§1) CH5451098 (N-cyclopropyl-2-[2-[8-[(2R)-2,3-dihydroxypropoxy]-6,6-dimethyl-11-oxo-naphtho[2,3-b]benzofuran-3-yl]ethynyl]pyridine-4-carboxamide), a selective inhibitor of AXL, was synthesized at Chugai Pharmaceutical Co. Ltd. (Fig 1). The following recombinant proteins were used for the kinase assay: AXL, Mer, Tyro3, Flt3, JAK2, EGFR, HER2, KIT, PDGFRβ, FGFR2, KDR, MET, ALK, EPHA2, EPHB2, FAK, SRC, ABL, ERK1, PKA, AKT1, PKACα, PKACβ1, AurA, CHK1, CHK2, MNK1, CDK1, and p38α from Carna Biosciences (Kobe, Japan), and Raf1 from Thermo Fisher Scientific (Waltham, MA). Recombinant mouse TGFβ1 (mTGFβ1) and recombinant mouse Gas6 (mGas6) were purchased from R&D systems. All other chemicals were of the highest purity available. The following primary antibodies were used for this study: anti-beta catenin (8480), anti-zinc finger E-box-binding homeobox 1 (Zeb1) (3396), anti-glyceraldehyde-3-phosphate dehydrogenase (GAPDH) (8884) antibody from Cell Signaling Technology (Danvers, MA). […]
(§2) Protein kinases were purchased from Carna Biosciences or Millipore. The inhibitory activity against each kinase was evaluated as described previously.
(§3) Fig 2 In vitro kinase inhibitory activity of CH5451098. […] Enzyme inhibitory activity was calculated by the formula (1-T/C) x 100 (%), where T represents the measured value of the wells with a compound and C represents that of wells without a compound (n = 2). […]

[1] = test system: 30 kinases including the TAM family (Tyro3, AXL and, Mer) of receptor tyrosine kinases; assay: 30 kinase inhibitory assays (selectivity); format: biochemical; details: Fig 2B
Description: as §1, §2, §3

NEP25 mice = assay: NEP25 mouse model of glomerular nephritis (LMB2-induced); format: in vivo
Procedure: NEP25 mice, heterozygous podocyte-specific hCD25 transgenic mice, were bred in Tokai University and kindly provided by Matsusaka et al.. All mice were kept in well-controlled animal housing with free access to water and pellet food. Animal procedures and protocols were in accordance with the Guidelines for the Care and Use of Laboratory Animals at Chugai Pharmaceutical Co. Ltd. and approved by the Institutional Animal Care and Use Committee.
To induce disease, NEP25 mice were injected with 0.8 μg/kg of the immunotoxin LMB2 (provided from National Institutes of Health, USA) via the tail vein, except in the normal control group (n = 4). CH5451098 powder was suspended in a 0.5% carboxymethyl cellulose solution to prepare 1.0 mg/mL. Mice were divided into 2 groups and were orally administered vehicle (disease group, n = 10) or CH5451098 10 mg/kg once daily for 21 days (CH5451098 group, n = 10) from one day before LMB2 injection. The dose of CH5451098 was set high enough to inhibit AXL kinase activity throughout the day. Mice not treated with LMB2 were used as normal control.
Blood and urine samples were collected on day 7, 14, or, 21 after LMB2 injection. Blood samples were collected from the abdominal portion of the vena cava under isoflurane anesthesia and were centrifuged to obtain serum samples. Urine samples were collected for 24 hours using a metabolic cage. The mice were euthanized by exsanguination under isoflurane anesthesia at day 22 after LMB2 injection. Kidney tissues were dissected for pathology (formalin-fixed or methyl carnoy-fixed) and kidney cortex samples were collected and snap frozen in liquid nitrogen.
Serum urea nitrogen (BUN), creatinine (sCre) and urinary albumin (uAlb), N-Acetyl-beta-D Glucosaminidase (NAG), and creatinine were measured using an automatic analyzer (Hitachi 7100 Autoanlayzer, Hitachi Co., Ltd. Tokyo, Japan).
RNA samples were extracted from frozen mouse kidney cortex or NRK-52E cells using an RNaesy Mini kit (QIAGEN, Hilden, Germany). cDNA were synthesized from RNA using a reverse transcription kit (Roche applied science, Penzberg, Germany). Expression levels were measured by a LightCycler 480 (Roche Applied science) using TaqMan probe/primer sets for each gene (Thermo Fisher Scientific). […]

NRK-52E cells = assay: EMT induced by TGFβ1 and Gas6 in NRK-52E cells (mRNA expression); format: cell-based, rat; details: CH5451098 1 nmol/L; mTGFβ1 2 ng/mL and mGas6 500 ng/mL; 2 hours
Procedure: RNA samples were extracted from frozen mouse kidney cortex or NRK-52E cells using an RNaesy Mini kit (QIAGEN, Hilden, Germany). cDNA were synthesized from RNA using a reverse transcription kit (Roche applied science, Penzberg, Germany). Expression levels were measured by a LightCycler 480 (Roche Applied science) using TaqMan probe/primer sets for each gene (Thermo Fisher Scientific).
NRK-52E cell line derived from rat renal tubular epithelial cells was purchased from ATCC (Manassas, VA) and cultured in Dulbecco’s modified eagle’s medium with high glucose media supplemented with 5% FBS at 37°C under 5% CO 2 and 95% air.
NRK-52E cells were seeded onto a collagen-coated plate and were cultured over-night. After reaching subconfluence, cells were cultured in serum restricted medium (0.5% FBS) for 6 hours. Then the cells were stimulated with recombinant mTGFβ1 (2 ng/mL) and/or recombinant mGas6 (500 ng/mL) followed by treatment with or without CH5451098 (1 nmol/L) for 15 minutes. The cells were lysed with RLT buffer (Qiagen) after 2 hours incubation with stimulants and mRNA was purified using RNeasy mini kit (Qiagen).

[2] = 10 mg/kg once daily 21 days, kidney cortex, vs disease control
[3] = 10 mg/kg once daily 21 days, vs disease control
[4] = 10 mg/kg orally once daily 21 days, blood 24 hours after final administration, mean ± SE, p<0.01 vs disease control
[5] = kidney cortex, 3 weeks after disease induction, vs disease control

CC1(C)c2cc(OC[C@H](O)CO)ccc2C(=O)c2c1oc1cc(C#Cc3cc(C(=O)NC4CC4)ccn3)ccc21 [CH5451098, N-cyclopropyl-2-[2-[8-[(2R)-2,3-dihydroxypropoxy]-6,6-dimethyl-11-oxo-naphtho[2,3-b]benzofuran-3-yl]ethynyl]pyridine-4-carboxamide]
IC50 (AXL): 3.8 nM
selectivity against other kinases [1]: strongest inhibitory activity towards AXL among 30 kinases
uAlb excretion (NEP25 mice; 10 mg/kg once daily 21 days, 3 weeks after disease induction, vs disease control): significantly decreased
Renal LCN2 mRNA (NEP25 mice; [2]): significantly decreased
kidney Col1a1 mRNA (NEP25 mice; [2]): significantly reduced
kidney OH-Pro content (NEP25 mice; [2]): suppressed
kidney Pai1 mRNA (NEP25 mice; [2]): significantly inhibited
kidney Snai1 mRNA (NEP25 mice; [2]): did not reduce
kidney TGFβ1 mRNA expression (NEP25 mice; [2]): only a partial reduction
kidney Twist1 mRNA (NEP25 mice; [2]): tended to suppress
kidney Zeb1 mRNA (NEP25 mice; [2]): suppressed
Urinary NAG excretion (NEP25 mice; 10 mg/kg once daily 21 days, urine 0 to 24 hours after final administration, vs disease control): significantly inhibited
abundance of stained connective tissue (Sirius red and Masson's Trichrome staining) (NEP25 mice; [3]): inhibited
destruction of glomerular structure (periodic acid-Schiff stain) (NEP25 mice; [3]): ameliorated
tubulointerstitial fibrosis (semi-quantitative score, Masson's trichrome) (NEP25 mice; [3]): significantly suppressed
BUN (NEP25 mice; [4]): 55 ± 5.0 mg/dL
Serum creatinine (sCre) (NEP25 mice; [4]): 0.15 ± 0.019 mg/dL
uAlb leakage (NEP25 mice; 2 weeks after disease induction, compared to DC group, data not shown): no effect
kidney Zeb1 protein level (western blotting) (NEP25 mice; [5]): reduced
kidney beta-catenin protein level (western blotting) (NEP25 mice; [5]): reduced
LCN2 mRNA induced by Gas6 and TGFβ1 (NRK-52E cells): inhibited
Snai1 mRNA induced by Gas6 along with TGFβ1 (NRK-52E cells): markedly inhibited
Twist1 mRNA induced by Gas6 along with TGFβ1 (NRK-52E cells): markedly inhibited
Zeb1 mRNA induced by Gas6 along with TGFβ1 (NRK-52E cells): markedly inhibited
enhancement of Pai1 mRNA (NRK-52E cells): suppressed
enhancement of TGFβ1 mRNA (NRK-52E cells): suppressed
